From ChEMBL document CHEMBL4699566, “Pharmacophore modeling, design, and synthesis of potent antihypertensives, oxazolo/thiazolo-[3,2-a]-pyrimidin-3(2H)-one, and 1,5-dihydroimidazo-[1,2-a]-pyrimidin-3(2H)-one derivatives: A pilot trial” (2020) come the findings set out here.

What all share (format): functional
For assay [1], the system named is Rattus norvegicus. Briefly: Antihypertensive activity in spontaneously hypertensive rat assessed as reduction in mean arterial blood pressure at 3 mg/kg, po measured after 12 hrs.
The subject of assay [2] is Rattus norvegicus. The assay can be described thus: Antihypertensive activity in spontaneously hypertensive rat assessed as reduction in mean arterial blood pressure at 1.5 mg/kg, po measured after 12 hrs.
The subject of assay [3] is Rattus norvegicus. The assay can be described thus: Antihypertensive activity in spontaneously hypertensive rat assessed as reduction in mean arterial blood pressure at 1.5 mg/kg, po measured after 12 hrs relative to nifedipine. Also noted: scale not given: the % may be the effect or the level left.
Assay [4] concerns Rattus norvegicus. The assay can be described thus: Antihypertensive activity in spontaneously hypertensive rat assessed as reduction in mean arterial blood pressure at 3 mg/kg, po measured after 6 hrs.
The test system of assay [5] is Rattus norvegicus. The assay can be described thus: Antihypertensive activity in spontaneously hypertensive rat assessed as reduction in mean arterial blood pressure at 3 mg/kg, po measured after 6 hrs relative to nifedipine. Set-up: scale not given: the % may be the effect or the level left.
Assay [6] has as its system Rattus norvegicus. Briefly: Antihypertensive activity in spontaneously hypertensive rat assessed as reduction in mean arterial blood pressure at 1.5 mg/kg, po measured after 6 hrs relative to nifedipine. Also noted: scale not given: the % may be the effect or the level left.
Assay [7] concerns Rattus norvegicus. The assay can be described thus: Antihypertensive activity in spontaneously hypertensive rat assessed as reduction in mean arterial blood pressure at 3 mg/kg, po measured after 12 hrs relative to nifedipine. Set-up: scale not given: the % may be the effect or the level left.
For assay [8], the system named is Rattus norvegicus. The assay can be described thus: Antihypertensive activity in spontaneously hypertensive rat assessed as reduction in mean arterial blood pressure at 1.5 mg/kg, po measured after 6 hrs.

On to `CCOC(=O)C1=C(C)N=C2NC(C)C(=O)N2C1c1cccc(C)c1` (centres undefined), for which the Activity in assay [1] is listed as 24.65 mmHg; in assay [2], 11.51 mmHg; in assay [3], 92.95%; in assay [4], 18 mmHg; in assay [5], 95.46%; in assay [6], 79.78%. Besides, the Activity in assay [7] is on record as 92.02%; in assay [8] it was 5.5 mmHg.

Consider `CCOC(=O)C1=C(C)N=C2SC(C)C(=O)N2C1c1ccccc1O` (centres undefined), for which the Activity stood at 9.18 mmHg in assay [1], 1.29 mmHg in assay [2], 4.47 mmHg in assay [4] and 0.58 mmHg in assay [8].

`CCOC(=O)C1=C(C)N=C2OC(C)C(=O)N2C1c1cccc([N+](=O)[O-])c1` (centres undefined): the Activity in assay [1] is 15.16 mmHg; in assay [2], 4.1 mmHg; in assay [4], 8.19 mmHg; in assay [8], 2.01 mmHg.

As for `CCOC(=O)C1=C(C)N=C2NC(C)C(=O)N2C1c1ccccc1` (centres undefined), the Activity in assay [1] was 25.38 mmHg; in assay [2] it was 12.39 mmHg; in assay [3] it was 92.95%; in assay [4], 18.1 mmHg; in assay [5], 95.46%; in assay [6], 79.78%. Moreover, the Activity in assay [7] is given as 92.02%; in assay [8] it was 5.96 mmHg.

As to `CCOC(=O)C1=C(C)N=C2OC(C)C(=O)N2C1c1ccc([N+](=O)[O-])cc1` (centres undefined), the Activity in assay [1] amounted to 12.97 mmHg; in assay [2], 2.59 mmHg; in assay [4], 7.22 mmHg; in assay [8], 1.8 mmHg.

Regarding `CCOC(=O)C1=C(C)N=C2SC(C)C(=O)N2C1c1ccc(C)c(C)c1` (centres undefined), the Activity in assay [1] worked out at 8.24 mmHg; in assay [2] it was 2.2 mmHg; in assay [4], 5.76 mmHg; in assay [8] it was 1.62 mmHg.

Consider `CCOC(=O)C1=C(C)N=C2SC(C)C(=O)N2C1c1cccc(Cl)c1` (centres undefined), for which the Activity was determined as 7.2 mmHg in assay [1], 1.41 mmHg in assay [2], 5.37 mmHg in assay [4] and 1.16 mmHg in assay [8].

With `CCOC(=O)C1=C(C)N=C2OC(C)C(=O)N2C1c1ccccc1` (centres undefined), the Activity in assay [1] is reported as 10.9 mmHg; in assay [2] it was 1.82 mmHg; in assay [4], 6.04 mmHg; in assay [8], 1.12 mmHg.

For the compound `COC(=O)C1=C(C)NC(C)=C(C(=O)OC)C1c1ccccc1[N+](=O)[O-]` [NIFEDIPINE], the Activity in assay [1] came out at 27.58 mmHg; in assay [2] it was 13.33 mmHg; in assay [4] it was 18.96 mmHg; in assay [8] it was 7.47 mmHg.
